Reference: patent publication US12522630B2, “MRNA cap analog and uses thereof” (HANMI FINE CHEMICAL CO., LTD., priority 2022, dated 2026)

How the values were obtained:
T7 RNA polymerase = molecular target: T1, T7 RNA polymerase (Escherichia phage T7, UniProt P00573); test: In vitro transcription of luciferase mRNA capped by co-transcriptional capping; type: biochemical; conditions: 4 mM cap analog, 37° C., 1 to 4 hours; compared with ^7mG(3′OMe)pppA(2′OMe)pG (set as 100%); FIG. 1
T1 construct: purchased New England Biolab #dy1670
T1 sequence (P00573 whole entry): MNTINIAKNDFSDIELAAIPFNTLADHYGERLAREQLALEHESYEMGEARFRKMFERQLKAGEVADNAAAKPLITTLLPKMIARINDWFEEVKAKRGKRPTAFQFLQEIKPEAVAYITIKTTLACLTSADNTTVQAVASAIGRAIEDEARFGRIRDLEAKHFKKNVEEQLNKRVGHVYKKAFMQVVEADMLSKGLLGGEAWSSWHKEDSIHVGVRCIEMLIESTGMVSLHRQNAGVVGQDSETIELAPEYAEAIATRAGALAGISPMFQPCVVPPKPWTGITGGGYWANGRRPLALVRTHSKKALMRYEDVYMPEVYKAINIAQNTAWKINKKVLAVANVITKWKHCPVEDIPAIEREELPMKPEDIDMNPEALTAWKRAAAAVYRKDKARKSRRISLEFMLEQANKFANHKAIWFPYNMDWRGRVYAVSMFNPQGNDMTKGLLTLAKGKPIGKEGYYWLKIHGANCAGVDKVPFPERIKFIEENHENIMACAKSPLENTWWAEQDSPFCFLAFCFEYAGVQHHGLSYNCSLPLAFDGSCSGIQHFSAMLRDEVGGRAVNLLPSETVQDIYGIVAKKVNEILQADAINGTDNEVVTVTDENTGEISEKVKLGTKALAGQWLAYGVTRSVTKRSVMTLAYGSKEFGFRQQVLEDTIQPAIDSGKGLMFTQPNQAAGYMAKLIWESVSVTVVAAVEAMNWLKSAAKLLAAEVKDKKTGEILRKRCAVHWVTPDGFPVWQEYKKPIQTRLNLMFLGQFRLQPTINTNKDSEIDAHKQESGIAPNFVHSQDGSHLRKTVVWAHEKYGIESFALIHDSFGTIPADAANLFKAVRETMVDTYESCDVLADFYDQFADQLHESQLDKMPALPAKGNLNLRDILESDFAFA
Experimental: For mRNA synthesis reaction using the compound of Example 8 as a cap analog, a transcription mixture including a 100 ng/ml firefly luciferase DNA transcription template (including poly A 101), 5 mM ATP, CTP, GTP, and 1-N-methyl-pseudouridine 5′-triphosphate (me^1øTP), 4 mM compound of Example 8, 10 U/ml T7 RNA polymerase (New England Biolab #dy1670), 1 U/ml RNase inhibiting protein, 0.01 U/ml inorganic pyrophosphatase, 40 mM Tris·HCl (pH 8.0), 20 mM magnesium acetate, 1 mM spermidine, and 10 mM DTT was prepared. As a comparative example, a transcription mixture was prepared by adding the TriLink's trinucleotide cap analog ^m7G(3′Ome)pppA(2′oMe)pG, instead of the compound of Example 8, under the same conditions. Each of the prepared transcription mixtures was reacted at 37° C. for 1 to 4 hours. […] Concentration of the purified mRNA was measured by using a Nanodrop spectrophotometer of Thermo Scientific, and a total amount of mRNA was calculated by multiplying the concentration and reaction volume. Then, in order to derive a mRNA in vitro transcription (IVT) yield, the total amount of mRNA synthesized using each different cap analog was divided by the input L-DNA content to quantify the IVT yield value according to the cap analog. […] This may be calculated by [Equation 1] below. […]

HEK293T cells = test: Translation of capped luciferase mRNA in HEK293T cell; type: cell-based, Human; conditions: compared with mRNA capped with ^7mG(3′OMe)pppA(2′OMe)pG
Experimental: Translation activity of luciferase mRNAs respectively prepared by in vitro transcription of the compound of Example 8 or ^7mG(3′OMe)pppA(2′OMe)pG in Experimental Example 1 was evaluated in Human embryonic kidney 293T cell lines (HEK293T). HEK293T cells were incubated in DMEM supplemented with 10% FBS and 1% penicillin/streptomycin at 37° C. under an atmosphere of 5% CO2. HEK293T cells were plated in a 6-well plate at a density of 1×10^5 cells/well. […] The cells were harvested after 1, 4, 6, 12, 24, and 48 hours from the transfection and luciferase activity was measured by using a Dual-Glo® Luciferase Assay kit (Promega catalog #E2910) according to manufacturer's recommendations: after removing the medium of the transfected cells, 75 μl of phosphate-buffered saline (PBS) was added thereto. Subsequently, 75 μl of a Dual-Glo® reagent was further added thereto, followed by mixing and incubation for 10 minutes, and then firefly luciferase luminescence was measured by using a luminometer (Perkin Elmer). Then, 75 μl of a Dual-Glo® Stop&Glo® reagent was further added thereto, followed by incubation for 10 minutes, and then Renilla luciferase luminescence was measured. A ratio of firefly luciferase luminous value to a Renilla luciferase luminous value, a control was calculated, and then luciferase activity per hour relative […] (RLU) was normalized, which is shown in FIG. 2. […]

What does the source list for `COC1[C@@H](OP(=O)(O)OC[C@H]2O[C@@H](n3cnc4c(=O)[nH]c(N)nc43)C(O)[C@H]2O)[C@@H](COP(=O)(O)OP(=O)(O)OP(=O)(O)OC[C@H]2O[C@@H](n3c[n+](C)c4c(=O)[nH]c(N)nc43)C(O)[C@H]2OS(C)(=O)=O)O[C@H]1n1cnc2c(N)ncnc21` (stereo partly drawn) [Example 8, ^7mG(3′OMs)pppA(2′OMe)pG]?
IVT yield of luciferase mRNA with the compound as cap analog (T7 RNA polymerase): almost same; total protein expression level (AUC of luciferase activity) of mRNA capped with the compound (HEK293T cells; 1 hour to 48 hours after transfection, FIG. 3): higher total protein expression level; luciferase activity of mRNA capped with the compound (HEK293T cells; from 6 hours to 12 hours after transfection, FIG. 2): far higher luciferase activity
